In article PMC12663137 (Nature Communications, 2025):
Several values for one entry are separate records, joined by “and”; a condition that tells them apart may be missing. Identical values can stand only once.

Experiments:
[1] = biological target: T1, SV2A WT and mutants (Homo sapiens, UniProt Q7L0J3, C693A); test: Relative binding of levetiracetam: 3H-UCB-J (10 nM) binding in presence of 10 µM levetiracetam (Fig. 2C); conditions: C693A; 10 µM levetiracetam; SV2AWT defined as 100%
T1 construct: expressed in transfected cells; host or cells: HEK293 (ATCC CRL-1573), crude membranes
T1 sequence (Q7L0J3 whole entry C693A): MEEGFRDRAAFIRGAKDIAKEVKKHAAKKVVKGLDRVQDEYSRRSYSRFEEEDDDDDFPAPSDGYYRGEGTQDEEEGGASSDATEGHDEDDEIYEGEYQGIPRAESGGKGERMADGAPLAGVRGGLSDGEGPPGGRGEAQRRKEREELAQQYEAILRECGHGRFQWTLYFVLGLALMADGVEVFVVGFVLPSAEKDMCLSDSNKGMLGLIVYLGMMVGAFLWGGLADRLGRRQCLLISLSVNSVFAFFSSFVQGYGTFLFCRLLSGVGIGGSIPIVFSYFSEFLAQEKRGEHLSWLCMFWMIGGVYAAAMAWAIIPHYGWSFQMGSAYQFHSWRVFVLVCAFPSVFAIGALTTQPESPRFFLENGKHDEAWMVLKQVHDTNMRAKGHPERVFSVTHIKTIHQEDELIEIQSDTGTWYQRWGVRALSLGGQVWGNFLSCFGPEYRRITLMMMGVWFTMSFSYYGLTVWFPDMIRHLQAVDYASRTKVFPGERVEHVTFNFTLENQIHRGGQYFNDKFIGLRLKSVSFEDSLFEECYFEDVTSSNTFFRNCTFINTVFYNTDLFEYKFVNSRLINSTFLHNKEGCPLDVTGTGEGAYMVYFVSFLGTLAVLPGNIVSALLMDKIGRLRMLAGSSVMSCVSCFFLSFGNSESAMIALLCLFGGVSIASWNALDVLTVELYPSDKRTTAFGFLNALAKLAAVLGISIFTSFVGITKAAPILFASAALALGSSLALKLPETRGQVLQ
Protocol: (§1) Data are shown as mean ± s.d.; n = 6 biological replicates. […] Data shown as mean ± s.d.; n = 6 biological replicates. D Superposition of SV2A-apo (gray) and SV2A–Lev (green), showing helix-to-loop transition and inward movement of TM1 in levetiracetam-bound state. […] Source data for (B, C) are provided as a Source data file.
(§2) Ligand binding studies were carried out using crude membranes prepared from HEK293 cells (ATCC, CRL-1573) overexpressing mVenus-SV2AWT or SV2AEM. Membranes were prepared either from transiently transfected cells or from baculovirus-infected cells as described previously. Cells were washed with DPBS (Ca^2+ and Mg^2+ free), followed by resuspending in cold SH buffer (10 mM HEPES-Tris pH 7.4, 320 mM sucrose) containing protease inhibitor cocktail (MedChemExpress) to a density of 10^7 cells/ml. This cell suspension was homogenized by passing through a bead homogenizer (Isobiotec) with 10-micron clearance bead on ice. The lysate was then centrifuged at 4000 × g for 5 min at 4 °C, and the supernatant was aliquoted, frozen in liquid nitrogen, and stored at −80 °C. The mVenus fluorescence estimated using fluorescence size-exclusion chromatography (FSEC) was used to normalize expression levels of mVenus-SV2A mutants studied as detailed previously. For all binding studies, membranes containing […] protein (estimated by BCA method) per reaction were used.

[2] = biological target: T2, SV2A WT and mutants (Homo sapiens, UniProt Q7L0J3, N690A); test: as above; conditions: N690A
T2 construct: expressed in transfected cells; host or cells: HEK293 (ATCC CRL-1573), crude membranes
T2 sequence (Q7L0J3 whole entry N690A): as the sequence (Q7L0J3 whole entry C693A) above, with N690A, A693C counted along it
Protocol: as §1, §2

[3] = biological target: T3, SV2A WT and mutants (Homo sapiens, UniProt Q7L0J3); test: as above; conditions: WT; 10 µM levetiracetam; SV2AWT defined as 100%
T3 construct: expressed in transfected cells; host or cells: HEK293 (ATCC CRL-1573), crude membranes
T3 sequence (Q7L0J3 whole entry, change not shown): as the sequence (Q7L0J3 whole entry C693A) above, with A693C counted along it
Protocol: as §1, §2

[4] = test system: SV2A WT, W300A, W666A, D670A; test: Displacement of 10 nM 3H-UCB-J by levetiracetam, binding site mutations (Fig. 2B); parameters: species or system human; conditions: Fig. 2B
Protocol: as §2, with “Membranes” for “Ligand binding studies were carried out using crude membranes prepared from HEK293 cells (ATCC, CRL-1573) overexpressing mVenus-SV2AWT or SV2AEM. Membranes”
(§3) To obtain dose-response curves of studied SV2A ligands, membranes diluted in 0.2 ml binding buffer (50 mM Tris-Cl, pH 7.4, and 2 mM MgCl2) were incubated with indicated concentrations of ligands for 30 min at 4 °C. […] The binding reaction was arrested by trapping membranes on Unifilter-GF/C 96-well filter plates (Revvity) pre-soaked with 0.1%(w/v) polyethyleneimine (PEI). Membranes were then washed four times with 0.2 ml of cold binding buffer, dried, and 40 µl of scintillation liquid was added to each well. Radioactivity was monitored in MicroBeta2 plate counter (Revvity). Estimates for IC50 were obtained from fitting the data to three-parameter dose-response curves using GraphPad Prism 10.

[5] = biological target: T4, SV2A WT, W300A, W666A, D670A (Homo sapiens, UniProt Q7L0J3); test: as above; conditions: read-out: Binding of 3H-UCB-J (%), WT
T4 construct: expressed in transfected cells; host or cells: HEK293 (ATCC CRL-1573), crude membranes
T4 sequence (Q7L0J3 whole entry W300A/W666A/D670A): as the sequence (Q7L0J3 whole entry C693A) above, with W300A, W666A, D670A, A693C counted along it
Protocol: as §2, with “Membranes” for “Ligand binding studies were carried out using crude membranes prepared from HEK293 cells (ATCC, CRL-1573) overexpressing mVenus-SV2AWT or SV2AEM. Membranes”
as §3

[6] = biological target: T5, SV2AEM (Homo sapiens, UniProt Q7L0J3); test: Competitive displacement of 10 nM 3H-UCB-J, SV2AEM membranes (Fig. 1A); type: binding
T5 construct: expressed in transfected cells; host or cells: HEK293 (ATCC CRL-1573), crude membranes (transient transfection or baculovirus)
T5 sequence (Q7L0J3 141-742): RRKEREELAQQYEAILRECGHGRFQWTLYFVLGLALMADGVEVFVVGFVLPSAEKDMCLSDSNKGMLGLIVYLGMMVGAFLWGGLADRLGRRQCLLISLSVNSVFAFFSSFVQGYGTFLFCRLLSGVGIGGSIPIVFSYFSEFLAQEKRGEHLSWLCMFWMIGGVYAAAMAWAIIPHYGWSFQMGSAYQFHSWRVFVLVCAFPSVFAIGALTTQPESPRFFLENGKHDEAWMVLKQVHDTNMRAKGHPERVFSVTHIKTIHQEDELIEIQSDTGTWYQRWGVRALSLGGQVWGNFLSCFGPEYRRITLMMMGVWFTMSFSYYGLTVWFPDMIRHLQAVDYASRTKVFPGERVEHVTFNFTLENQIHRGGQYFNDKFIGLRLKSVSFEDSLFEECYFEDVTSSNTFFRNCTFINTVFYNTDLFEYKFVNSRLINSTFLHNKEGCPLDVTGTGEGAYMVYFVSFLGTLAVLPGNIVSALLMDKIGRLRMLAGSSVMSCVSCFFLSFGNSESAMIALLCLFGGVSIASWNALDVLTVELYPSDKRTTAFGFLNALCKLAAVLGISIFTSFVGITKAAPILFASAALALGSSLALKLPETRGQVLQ
Protocol: as §2, §3

[7] = biological target: T6, SV2AWT (Homo sapiens, UniProt Q7L0J3); test: Competitive displacement of 10 nM 3H-UCB-J, SV2AWT membranes (Fig. 1A); type: binding; conditions: read-out: Binding of 3H-UCB-J (%), SV2A_WT
T6 construct: expressed in transfected cells; host or cells: HEK293 (ATCC CRL-1573), crude membranes
T6 sequence (Q7L0J3 whole entry): as the sequence (Q7L0J3 whole entry C693A) above, with A693C counted along it
Protocol: as §2, §3

## CC[C@@H](C(N)=O)N1CCCC1=O [levetiracetam]
[1]
  Levetiracetam Binding (%): 135.59% and 126.18% and 71.93% and 77.61% and 128.23% and 117.60%
[2]
  effect of mutation on levetiracetam binding: enhances levetiracetam binding
[2]; 10 µM levetiracetam, SV2AWT defined as 100%
  Levetiracetam Binding (%): 143.32% and 133.74% and 159.43% and 149.90% and 155.36% and 156.86%
[3]
  Levetiracetam Binding (%): 102.09% and 117.44% and 93.09% and 74.67% and 113.64% and 99.03%
[4]
  reduction of levetiracetam binding by mutating Trp300, Trp666, Asp670: ~1000 fold
[5]; Log [Levetiracetam] (M) -3.000
  3H-UCB-J binding at 1000 µM: 6.22%
[5]; Log [Levetiracetam] (M) -4.000
  3H-UCB-J binding at 100 µM: 31.9%
[5]; Log [Levetiracetam] (M) -5.523
  3H-UCB-J binding at 3 µM: 73.5%
[5]; Log [Levetiracetam] (M) -6.000
  3H-UCB-J binding at 1 µM: 84.4%
[6]
  IC50: 9.5 µM
[6]; competition with 3H-UCB-J
  binding response of SV2AEM vs wild-type SV2A: comparable to those of wild-type SV2A
[6]; read-out: Binding of 3H-UCB-J (%), SV2A_EM, Log [Levetiracetam] (M) -5.000
  remaining activity at 10 µM: 53.7%
[7]; Log [Levetiracetam] (M) -3.523
  remaining activity at 300 µM: 10.8%
[7]; Log [Levetiracetam] (M) -4.000
  remaining activity at 100 µM: 22.8%
[7]; Log [Levetiracetam] (M) -5.000
  remaining activity at 10 µM: 66.1%
[7]; Log [Levetiracetam] (M) -6.000
  remaining activity at 1 µM: 95%
[7]; Log [Levetiracetam] (M) -7.000
  remaining activity at 0.1 µM: 95.2%
[7]; Log [Levetiracetam] (M) -8.000
  remaining activity at 0.01 µM: 92.5%
